≈ marks a conversion by molar mass, not a printed value.

The target in test [1] is T1, Alpha-mannosidase 2 (Rattus norvegicus, UniProt P28494).
T1 sequence (P28494 whole entry): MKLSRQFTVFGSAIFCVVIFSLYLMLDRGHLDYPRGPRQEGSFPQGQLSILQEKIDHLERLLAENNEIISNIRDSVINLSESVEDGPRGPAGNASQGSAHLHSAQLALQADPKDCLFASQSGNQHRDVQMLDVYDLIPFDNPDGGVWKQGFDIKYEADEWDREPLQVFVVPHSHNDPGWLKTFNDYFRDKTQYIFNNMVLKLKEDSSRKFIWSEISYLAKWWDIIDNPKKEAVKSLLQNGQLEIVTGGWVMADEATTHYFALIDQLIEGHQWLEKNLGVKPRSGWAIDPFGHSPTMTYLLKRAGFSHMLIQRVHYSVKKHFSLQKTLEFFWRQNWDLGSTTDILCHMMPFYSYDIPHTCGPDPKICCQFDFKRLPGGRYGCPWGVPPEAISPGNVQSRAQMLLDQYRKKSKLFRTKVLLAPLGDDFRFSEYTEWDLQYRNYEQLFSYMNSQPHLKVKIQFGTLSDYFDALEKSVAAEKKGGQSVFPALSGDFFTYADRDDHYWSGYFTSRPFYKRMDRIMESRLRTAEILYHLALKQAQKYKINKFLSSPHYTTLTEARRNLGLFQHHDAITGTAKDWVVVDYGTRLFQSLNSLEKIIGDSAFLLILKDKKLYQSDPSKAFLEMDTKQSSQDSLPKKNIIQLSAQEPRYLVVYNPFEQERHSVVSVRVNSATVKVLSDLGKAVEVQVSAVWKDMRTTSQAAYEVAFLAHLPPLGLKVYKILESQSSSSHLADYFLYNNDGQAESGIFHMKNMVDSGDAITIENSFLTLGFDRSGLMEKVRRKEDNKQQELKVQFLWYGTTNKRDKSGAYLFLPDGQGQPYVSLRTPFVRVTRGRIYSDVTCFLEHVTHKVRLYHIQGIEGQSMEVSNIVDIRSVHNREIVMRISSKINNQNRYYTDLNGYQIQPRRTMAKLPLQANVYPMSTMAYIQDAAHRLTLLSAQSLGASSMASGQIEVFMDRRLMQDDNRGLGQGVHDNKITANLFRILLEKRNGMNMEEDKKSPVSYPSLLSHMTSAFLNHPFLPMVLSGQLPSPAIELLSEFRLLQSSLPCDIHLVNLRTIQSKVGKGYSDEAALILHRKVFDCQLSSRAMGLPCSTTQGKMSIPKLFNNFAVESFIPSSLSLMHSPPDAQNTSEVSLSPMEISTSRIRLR
Nature of the test: Inhibition of golgi Alpha-mannosidase II in rat liver. The class given is tissue-based.

In the next test the test system is MOLT-4. Put plainly: Concentration giving 50% inhibition of HIV-1 induced cytopathogenicity in MOLT-4 cells. The class given is functional, cell-based, Homo sapiens. (Cytopathic effects are the visible damage that an infection or toxin causes in cultured cells.)
In a further test the target is T2, Mannosidase 2, alpha B1 (Rattus norvegicus, UniProt Q6P762).
T2 sequence (Q6P762 whole entry): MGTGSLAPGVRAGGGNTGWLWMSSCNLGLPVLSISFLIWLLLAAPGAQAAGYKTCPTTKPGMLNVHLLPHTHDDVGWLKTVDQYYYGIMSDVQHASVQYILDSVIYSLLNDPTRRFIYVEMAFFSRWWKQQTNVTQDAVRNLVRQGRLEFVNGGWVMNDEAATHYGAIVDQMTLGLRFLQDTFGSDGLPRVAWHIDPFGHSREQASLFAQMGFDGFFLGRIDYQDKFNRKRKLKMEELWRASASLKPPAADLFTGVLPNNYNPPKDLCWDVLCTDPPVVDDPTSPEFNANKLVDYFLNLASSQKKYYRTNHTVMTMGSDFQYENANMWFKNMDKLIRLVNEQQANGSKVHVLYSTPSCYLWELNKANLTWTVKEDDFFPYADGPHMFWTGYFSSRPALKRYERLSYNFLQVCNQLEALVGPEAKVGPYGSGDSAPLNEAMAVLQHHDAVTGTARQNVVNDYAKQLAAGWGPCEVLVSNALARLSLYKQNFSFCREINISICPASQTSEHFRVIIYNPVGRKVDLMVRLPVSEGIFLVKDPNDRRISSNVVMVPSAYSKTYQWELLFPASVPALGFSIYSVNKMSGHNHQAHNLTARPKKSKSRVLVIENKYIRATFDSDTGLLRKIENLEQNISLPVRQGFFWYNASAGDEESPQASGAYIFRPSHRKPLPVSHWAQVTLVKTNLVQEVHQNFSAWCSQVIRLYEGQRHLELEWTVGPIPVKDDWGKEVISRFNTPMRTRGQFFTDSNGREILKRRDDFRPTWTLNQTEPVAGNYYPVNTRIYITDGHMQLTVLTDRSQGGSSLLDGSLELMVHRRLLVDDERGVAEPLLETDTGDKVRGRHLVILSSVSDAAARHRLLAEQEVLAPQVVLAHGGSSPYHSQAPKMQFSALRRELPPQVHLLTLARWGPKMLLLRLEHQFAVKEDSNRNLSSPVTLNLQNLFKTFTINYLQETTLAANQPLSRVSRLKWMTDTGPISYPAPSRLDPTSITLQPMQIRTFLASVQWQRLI
Put plainly: Inhibition of lysosomal Alpha-mannosidase II in rat liver. The class given is tissue-based.

Test [2] has as its target T1, Alpha-mannosidase 2. Put plainly: Competitive Inhibitory activity against Golgi Alpha-mannosidase II.

The IC50 is the concentration needed to halve the response being measured. In general, EC50 refers to the concentration needed to bring the measured effect to its halfway point. A lower EC50 goes with a more potent agent. A word on the Ki: it is the equilibrium dissociation constant of an inhibitor or competing ligand from its target. Lower therefore signals tighter binding. For the compound `CCCCN1C[C@H](O)[C@@H](O)[C@H](O)[C@H]1CO`, the IC50 at Alpha-mannosidase 2 [1] is less than 50 µM; against Mannosidase 2, alpha B1 it was less than 50 µM. Moreover, in the test with MOLT-4, the EC50 turned out to be 37 mg/L (≈ 169 µM). At Alpha-mannosidase 2 [2], this compound showed a Ki of less than 50 µM.

For the compound `CN1C[C@@H](O)[C@H](O)[C@H]1CO`, the IC50 against Alpha-mannosidase 2 [1] came to 64 µM; at Mannosidase 2, alpha B1, 360 µM. In the test on MOLT-4, this compound registered an EC50 greater than 100 mg/L. Moreover, on Alpha-mannosidase 2 [2], the Ki was 51 µM.

Turning to `CCCCN1C[C@@H](O)[C@H](O)[C@H]1CO`, the IC50 is 130 µM against Alpha-mannosidase 2 [1] and less than 50 µM on Mannosidase 2, alpha B1. Moreover, the concentration for a half-maximal effect (EC50) in the test with MOLT-4 is greater than 100 mg/L. This compound also returned a Ki on Alpha-mannosidase 2 [2] of 120 µM.

With `CN1C[C@H](O)[C@@H](O)[C@H](O)[C@H]1CO`, the IC50 on Alpha-mannosidase 2 [1] was less than 50 µM; against Mannosidase 2, alpha B1 it was 1000 µM. The same compound gave an EC50 in the test with MOLT-4 of 100 mg/L (≈ 564 µM). This compound also gave a Ki on Alpha-mannosidase 2 [2] of less than 50 µM.

For the origin of these results see ChEMBL document CHEMBL1128713, “N-alkylated nitrogen-in-the-ring sugars: conformational basis of inhibition of glycosidases and HIV-1 replication” (J Med Chem, 1995).
